Reference: PubChem BioAssay AID2141 (Sanford-Burnham Center for Chemical Genomics, 2009)
Activity calls are given as the source filed them. The rule behind the calls is not given here.

Each molecule was assayed against E3 ubiquitin-protein ligase SIAH1 (Homo sapiens) (UniProt Q8IUQ4) (assay: Siah-1 binding antagonists, dose response, biochemical, TR-FRET (AID 2141)). Conditions: TR-FRET biochemical assay.
In the case of `CCC1=Nc2cc(C(=O)O)ccc2Sc2ccccc21`, the IC50 is reported as “inactive”.
In the case of `O=C(O)c1cc(O)c2c(c1)C(=O)c1cccc(O)c1C2=O`, the IC50 is reported as > 200 µM (inactive).
`Cc1cc(C)nc(N=Nc2c(O)n(Cc3ccc(Cl)cc3)c3ccccc23)n1` was tested, and the IC50 was > 200 µM (inactive).
In the case of `O=C(Nc1ccc(Cl)cc1)c1ccc(S(=O)(=O)N2CCOCC2)cc1`, the IC50 is reported as > 200 µM (inactive).
In the case of `CCCCn1c(NS(=O)(=O)c2ccc(C)cc2)c(S(=O)(=O)c2ccccc2)c2nc3ccccc3nc21`, the IC50 is reported as 3.41 µM.
In the case of `O=c1ccc2c(-c3ccccc3)c3ccc(O)cc3oc-2c1`, the IC50 is reported as > 200 µM (inactive).
In the case of `O=C(CCn1ccc2ccccc21)NC1CCCc2ccccc21` (stereo unspecified), the IC50 is reported as > 200 µM (inactive).
`O=C(Nc1ccc(S(=O)(=O)N2CCOCC2)cc1)c1ccc(=O)[nH]c1` was tested, and the IC50 was 1.89 µM.
In the case of `COC(=O)C1C=C2c3cccc4[nH]cc(c34)CC2N(C)C1` (stereo unspecified), the IC50 is reported as 1.85 µM.
For `O=S(=O)(Nc1nc2ccccc2nc1Nc1ccc(N2CCOCC2)cc1)c1cc(Cl)ccc1Cl`, the IC50 was > 200 µM (inactive).
`CCOC(=O)/C(C#N)=c1/s/c(=C2\C=Cc3ccccc3N2CC)c(=O)n1CC` was tested, and the IC50 was > 200 µM (inactive).
In the case of `O=C(Nc1ccccc1N1CCCCC1)c1ccc(-c2cccc(Cl)c2)o1`, the IC50 is reported as > 200 µM (inactive).
With `COC(=O)c1ccc2c(c1)C(C)(C)C(/C=C/c1ccccc1O)=[N+]2C` the IC50 was > 200 µM (inactive).
With `COC(=O)c1c(C(=O)OC)c2cccc3cc(-c4ccccc4)c4ccc1c4n32` the IC50 was 14.6 µM.
In the case of `O=C(Nc1cc([N+](=O)[O-])ccc1N1CCOCC1)c1cccs1`, the IC50 is reported as > 200 µM (inactive).
For `C[N+]1(CCNC(=O)/C=N/O)CCCCC1`, the IC50 was “inactive”.
`Cc1ccc(CNc2ccc(O)cc2)cc1` was tested, and the IC50 was 4.51 µM.
`CC12CCC(C(=O)NCc3ccc(Cl)cc3)(OC1=O)C2(C)C` (stereo unspecified) was tested, and the IC50 was > 200 µM (inactive).
With `Cc1cc2cc(CNC(=O)c3ccc(S(=O)(=O)N4CCCCC4)cc3)ccc2n1C` the IC50 was 6.45 µM.
`O=C(Nc1nc(-c2cc3ccccc3oc2=O)cs1)c1ccco1` was tested, and the IC50 was 2.39 µM.
With `CC[n+]1c(/C=C/N(C)c2ccccc2)sc2ccc(Cl)cc21` the IC50 was > 200 µM (inactive).
With `CCCCn1c(NS(=O)(=O)c2ccccc2)c(C(=O)OCC)c2nc3ccccc3nc21` the IC50 was 2.16 µM.
`Cc1ccc2c(c1)N(CC(=O)NCCc1ccc(Cl)cc1)C(=O)c1cccnc1O2` was tested, and the IC50 was > 200 µM (inactive).
In the case of `Cc1cc(C)n2ncc(C(=O)Nc3ccc4c(c3)OCO4)c2n1`, the IC50 is reported as “inactive”.
With `COc1ccc(-c2cnnn2-c2ccc(N)cc2)cc1OC` the IC50 was > 200 µM (inactive).
For `Nc1c(C(=O)NCc2ccco2)c2nc3ccccc3nc2n1Cc1ccccc1`, the IC50 was less than 1.56 µM.
With `CCCCNc1nnc(Cc2ccc(Cl)cc2)c(=O)[nH]1` the IC50 was “inactive”.
`Cc1cc(C)n(-c2ccc(Cl)c(C(=O)Nc3cc(C(F)(F)F)ccc3Cl)n2)n1` was tested, and the IC50 was > 200 µM (inactive).
`COc1ccc(N=C2NC(=O)S/C2=C\c2ccc(N(C)C)cc2)cc1` was tested, and the IC50 was > 200 µM (inactive).
With `Cc1cc(Cl)ccc1NC(=O)CN1CCC(C(O)(c2ccccc2)c2ccccc2)CC1` the IC50 was > 200 µM (inactive).
In the case of `O=C(Cn1cnc2scc(-c3ccccc3)c2c1=O)NCc1ccco1`, the IC50 is reported as 7.29 µM.
`C=CCn1c(NS(=O)(=O)c2ccccc2)c(S(=O)(=O)c2ccc(C)cc2)c2nc3ccccc3nc21` was tested, and the IC50 was less than 1.56 µM.
`CN(C)CCOC(=O)CCc1ccccc1` was tested, and the IC50 was > 200 µM (inactive).
Molecule `O=C(N/N=C/c1cccc(Br)c1)c1ccc(Br)cc1` has an IC50 of 2.54 µM.
`CCNc1ccc(C(=O)O)cc1N` showed an IC50 of 3.96 µM.
For `Nc1ccc(S(=O)(=O)Nc2ccc(S(N)(=O)=O)cc2)cc1`, the IC50 was > 200 µM (inactive).
For `C=C(C)Cn1c(N2CCN(CC)CC2)nc2c1c(=O)[nH]c(=O)n2C`, the IC50 was > 200 µM (inactive).
`CC(=O)c1ccc(NC(=O)CC2Nc3cccc4cccc(c34)NC2=O)cc1` (stereo unspecified) was tested, and the IC50 was 8.51 µM.
With `Cc1ccc(C(=O)COc2ccccc2C(=O)Nc2ccccc2)cc1` the IC50 was > 200 µM (inactive).
In the case of `COc1ccc(CCNC(=O)c2ccc(S(=O)(=O)N(C)c3ccccc3)cc2)cc1OC`, the IC50 is reported as > 200 µM (inactive).
For `Cc1ccccc1-c1nc2c3ccccc3nc(=S)n2[nH]1`, the IC50 was > 200 µM (inactive).
With `CCn1c(O)c(C=Nc2ccc(N3CCOCC3)cc2)c(=O)n(CC)c1=S` the IC50 was > 200 µM (inactive).
Molecule `COC(=O)c1cccc(Cn2c(Cl)c(/C=N/NC(=O)c3ccccc3Cl)sc2=O)c1` has an IC50 of 19 µM.
Molecule `Nc1ccc(O)c2c1C(=O)c1ccccc1C2=O` has an IC50 of less than 1.56 µM.
In the case of `O=C(O)CCN1C(=O)/C(=C/c2cn(-c3ccccc3)nc2-c2cccs2)SC1=S`, the IC50 is reported as “inactive”.
In the case of `c1ccc(C(c2ccccc2)N2CCN(C(c3ccccn3)c3nnnn3C3CCCC3)CC2)cc1` (stereo unspecified), the IC50 is reported as > 200 µM (inactive).
In the case of `COc1ccc(CNC(=S)Nc2cc(OC)ccc2OC)cc1`, the IC50 is reported as > 200 µM (inactive).
With `Cc1c(Cc2ccccc2)c(=O)oc2c(C)c(OCC(=O)N[C@@H](Cc3ccccc3)C(=O)O)ccc12` the IC50 was 4.38 µM.
For `CCN(CC)c1ccc(/C=c2\sc3nnc(-c4ccccc4Cl)n3c2=O)cc1`, the IC50 was > 200 µM (inactive).
In the case of `CCN(CC)c1ccc(C=N/C(C#N)=C(\N)C#N)cc1`, the IC50 is reported as > 200 µM (inactive).
For `Cc1ccc(S(=O)(=O)NN=C2C3CC4CC(C3)CC2C4)cc1[N+](=O)[O-]`, the IC50 was > 200 µM (inactive).
